According to PMC10577883, “Design and Optimization of Novel Competitive, Non-peptidic, SARS-CoV-2 M^pro Inhibitors” (ACS Medicinal Chemistry Letters, 2023):
“And” between values parts separate entries of the source, which are not always exact repeats. Equal values may be shown once. Read-outs that look alike come from different tables or passages of the source.

Columns and labels:
SARS-CoV-2 Mpro = conditions: cited from earlier work; for IC50: literature value
in vitro = conditions: chlorocebus sabaeus
SARS-CoV-2 Mpro (3CLpro) = SARS-CoV-2 Mpro (3CLpro) (Severe acute respiratory syndrome coronavirus 2, UniProt P0DTD1); assay: SARS-CoV-2 recombinant protease enzymatic assay (FRET); assay type: biochemical; conditions: for IC50: recombinant Mpro, FRET peptide substrate
[1] = test system: SARS-CoV-2-Nluc reporter virus; assay: microbe, parasite or virus in culture; assay type: cell-based; conditions: for EC50: Severe acute respiratory syndrome coronavirus 2, VeroE6/TMPRSS2 cells, parentheses denote 95% confidence intervals
[2] = Rat liver microsome stability assay; conditions: 37 °C; for RLM percentage remaining after 30 min: 3 μM; for remaining at 5 min, 3 µM / remaining at 10 min, 3 µM / remaining at 0.25 h, 3 µM / half-life at 3 µM: Sprague-Dawley, rat, microsomes; for remaining at 5 min, 3 µM / remaining at 10 min, 3 µM / remaining at 0.25 h, 3 µM: RLM Rel % remaining; for remaining at 0.25 h, 3 µM: 15 min; for half-life at 3 µM: RLM t1/2, 3 μM, unit inferred
Method: Metabolic Stability Assay
(§2) Liver Microsome Stability Assay Protocol
(§3) Human liver microsomes (HLMs, 20 mg/mL), CD-1 mouse liver microsomes (MLMs, 20 mg/mL), Sprague Dawley
(§4) rat liver microsomes (RLMs, 20 mg/mL) were purchased from Xenotech. NADPH was purchased from Sigma-
(§5) Aldrich and prepared in 10 mM stock solutions of distilled H2O (InvitrogenTM UltraPureTM). Verapamil and
(§6) diphenhydramine were both purchased from Sigma-Aldrich and served as positive controls for LM stability assays.
(§7) Test compounds and positive controls were initially dissolved in DMSO to make 10 mM stock solutions. Sample
(§8) solutions were then further diluted in 100% MeCN to 500 μM. Next, the reactions were prepared by mixing human
(§9) or mouse liver microsomes (55 μL) with potassium phosphate buffer (100 mM, 928 μL) in 1.5 mL Eppendorf tubes.
(§10) The test compounds (6.6 μL of 500 μM solution) were subsequently added to the suspensions, and the reaction
(§11) mixtures were incubated at 37 °C for 5 min. Afterward, the liver microsome reactions were initiated with 110 μL
(§12) of 10 mM NADPH and further incubated at 37 °C for the designated time course of the study. This procedure
(§13) provided experiments with a final volume of 1100 μL (0.6% organic solvent content) and a final test compound
(§14) concentration of 3 μM. Aliquots (100 μL) were removed from each reaction mixture in duplicate at 0, 5, 10, 15,
(§15) and 30 min time intervals and quenched with 100 μL of cold internal standard solution (ISTD, 2 μM
(§16) 7-ethoxy-d 5-coumarin in MeOH or MeCN). Quenched aliquots were then centrifuged at 12,500 g for 5-10 min, and
(§17) the resulting supernatants were withdrawn and placed in LC-MS vials to be analyzed by LC-MS/MS (Agilent
(§18) G6460C QQQ MS coupled with an Infinity II 1260 HPLC). Each test compound was run in tandem with positive and
(§19) negative control experiments for quality assurance. Positive control reactions were conducted at a final volume
(§20) of 550 μL for a single run of each time point. Lastly, the negative control experiment was conducted with test
(§21) compounds and liver microsomes in the absence of NADPH (150 μL) and analyzed at the 30 min time point.
(§22) Data Analysis. Each data point was analyzed in triplicate using in-between blank washes to avoid carry over and
(§23) to equilibrate the column for the subsequent runs. Averages of these triplicates for individual compounds at each
(§24) time point were then normalized to the data at 0 min, representing 100% test compound remaining or 0%
(§25) metabolism. Half-lives (t 1/2) were calculated by plotting ln of % test compound remaining versus time and
(§26) performing linear regression to determine slope.
(§27) Instrumentation and LC-MS/MS Method Development
(§28) LC-MS/MS analyses were conducted on an Agilent 1260 Infinity II HPLC equipped with an Agilent G6460 triple
(§29) quadrupole mass spectrometer (Agilent Technologies, USA). Reverse-phase HPLC separation for each compound
(§30) m) column maintained at 40 °C. The mobile phase used during analyses consisted of either MeOH-H2O (0.1% FA)
(§31) or MeCN-H2O (0.1% FA) at a flow rate of 0.5 mL/min. Each method was developed in the presence of the internal
(§32) standard (ISTD), 7-ethoxy-d 5-coumarin. Precursor and product ion detection was performed with Agilent Jet
(§33) Stream electrospray positive ionization (ESI+) in multiple reaction monitoring (MRM) mode. All MRM transitions,
(§34) MS conditions were as follows: dwell time of 100 ms; gas flow of 10 L/min; nebulizer pressure of 45 psi; delta EMV
(§35) of 200 V. Lastly, all acquired data was processed using Agilent 6460 Quantitative Analysis software.

[3] = Oral dose escalation pharmacokinetics (10 and 100 mg/kg PO); assay type: in vivo, rat; conditions: for AUC(0-inf) / Cmax / Tlast / Tmax / half-life / concentration at 24 h: rat plasma, mean ± SD, n = 3; for concentration at 24 h: read-out: Clast
Method: (§1) To this end, 36 was studied in male Sprague–Dawley rats following a single intravenous dose at 0.25 mg/kg and an oral dose at 0.5 mg/kg (SI, Table S18).
Table S19. Summary of Pharmacokinetic Parameters (nmol/mL) for Compound 36 in Rat Plasma after a Single Oral
Dose of 36 at 10 mg/kg or 100 mg/kg
Dose Tmax Cmax Tlast Clast AUCinf t1/2
(mg/kg) (h) (nmol/mL) (h) (nmol/mL) (h*nmol/mL) (h)
Results are shown as averages and standard deviations (n = 3).
Figure S18. Average Concentrations (nmol/mL) of Compound 36 in Rat Plasma after a Single Oral Dose of 36 at 10
Left panel: Linear Scale, Right panel: Log Scale. Results are shown as averages and standard deviations (n = 3). […]

[4] = Mouse liver microsome stability assay; conditions: for MLM percentage remaining after 30 min: 3 μM, 37 °C; for half-life at 3 µM / remaining at 5 min, 3 µM / remaining at 10 min, 3 µM / remaining at 0.25 h, 3 µM: CD-1, mouse, microsomes
Method: Metabolic Stability Assay
as §2, §3, §4, §5, §6, §7, §8, §9, §10, §11, §12, §13, §14, §15, §16, §17, §18, §19, §20, §21, §22, §23, §24, §25, §26, §27, §28, §29, §30, §31, §32, §33, §34, §35

[5] = Pharmacokinetics after single IV and PO administration; assay type: in vivo, Male Sprague Dawley rats; conditions: male, Sprague-Dawley, rat, plasma
Method: as §1
Figure S16: Metabolite identification study of Compound 43 in liver microsomes using liquid chromatography coupled to high resolution mass spectrometry (LC-HRMS). The identification of metabolite Compound 43 M1 […]
MS analysis was performed using full scan from a mass range of 100-700 m/z at 60k resolution with data dependent MS/MS and MSn programs enabled for the top 5 ions detected for each scan. Compounds are detected based on their MS1 precursor ion accurate mass m/z and identified with matching theoretical and observed accurate mass MS1 ions with interpretation of accurate mass MS/MS spectra from expected […]
Table S18: Pharmacokinetic data of Compound 36 in Male Sprague Dawley rats following a single intravenous and oral administration (Dose: 0.25 mg/kg, IV and 0.5 mg/kg, PO)
Dose Tmax aC0/Cmax T1/2 CL Vss
Matrix Route AUClast AUCinf (mL/min %F […]
a – Back extrapolated concentration in IV group.
Figure S17: Plasma concentrations-time profiles (mean ± SD) of Compound 36 in Male Sprague Dawley rats following a single intravenous and oral administration (Dose: 0.25 mg/kg, IV and 0.5 mg/kg, PO) […]
(1 picture or pasted object on this page, not shown here)

[6] = Human liver microsome stability assay; conditions: for HLM percentage remaining after 30 min: 3 μM, 37 °C; for half-life at 3 µM / remaining at 5 min, 3 µM / remaining at 10 min, 3 µM / remaining at 0.25 h, 3 µM: human, microsomes
Method: Metabolic Stability Assay
as §2, §3, §4, §5, §6, §7, §8, §9, §10, §11, §12, §13, §14, §15, §16, §17, §18, §19, §20, §21, §22, §23, §24, §25, §26, §27, §28, §29, §30, §31, §32, §33, §34, §35

## N#Cc1ccccc1-c1cc(-c2cccc(Cl)c2)c(=O)n(-c2cccnc2)c1 [Compound 2]
SARS-CoV-2 Mpro
  IC50: 9.99 µM
SARS-CoV-2 Mpro; relative to perampanel 1
  improvement in potency over 1: 10 fold

## O=c1[nH]cccc1-c1cn(-c2cc(Cl)cc(Cl)c2)c(=O)n(-c2cccnc2)c1=O [Compound 6]
In vitro
  CC50: > 100 µM
SARS-CoV-2 Mpro (3CLpro)
  IC50: 0.276 µM and 0.28 µM
[1]
  EC50 range in words: sub-micromolar
  EC50: 0.5 µM

## O=c1ccc(-c2cn(-c3cc(Cl)cc(Cl)c3)c(=O)n(-c3cccnc3)c2=O)c[nH]1 [Compound 7]
In vitro
  CC50: > 100 µM
SARS-CoV-2 Mpro (3CLpro)
  IC50: 1.58 µM and 1.59 µM
[1]
  EC50: > 20 µM

## O=c1[nH]cccc1-c1cn(-c2cc(Cl)cc(OCC3CC3)c2)c(=O)n(-c2cccnc2)c1=O [Compound 35]
In vitro
  CC50: > 100 µM
SARS-CoV-2 Mpro (3CLpro)
  IC50: 0.1 µM
[1]
  EC50: 0.82 µM

## O=c1[nH]cccc1-c1cn(-c2cc(Cl)cc(OCCC(F)(F)F)c2)c(=O)n(-c2cccnc2)c1=O [Compound 36]
[2]
  RLM percentage remaining after 30 min: 86.4% and 86.41%
  remaining at 5 min, 3 µM: 95.4%
  remaining at 10 min, 3 µM: 90.9%
  remaining at 0.25 h, 3 µM: 88.8%
  half-life at 3 µM: > 30 min
In vitro
  CC50: > 100 µM
[3]; 10 mg/kg vs 100 mg/kg PO
  increase in AUC on 10-fold increase in dose: 2 fold
[3]; PO 10 mg/kg
  AUC(0-inf): 23.2 ± 2.18 µM·h
  Cmax: 2610 ± 476 nM
  Tlast: 24.0 ± 0.00 h
  Tmax: 100 ± 34.6 min
  half-life: 161 ± 18.6 min
  concentration at 24 h: 12.6 ± 6.27 nM
[3]; PO 100 mg/kg
  AUC(0-inf): 49.9 ± 4.53 µM·h
  Cmax: 4130 ± 161 nM
  Tlast: 24.0 ± 0.00 h
  Tmax: 140 ± 91.8 min
  half-life: 224 ± 64.8 min
  concentration at 24 h: 114 ± 105 nM
SARS-CoV-2 Mpro (3CLpro)
  IC50: 0.055 µM
[4]
  MLM percentage remaining after 30 min: 73.3% and 73.26%
  half-life at 3 µM: > 30 min
  remaining at 5 min, 3 µM: 93.9%
  remaining at 10 min, 3 µM: 90.1%
  remaining at 0.25 h, 3 µM: 83.8%
[1]
  EC50: 1.35 µM
[5]; PO 0.5 mg/kg vs IV 0.25 mg/kg, read-out: %F (oral bioavailability)
  bioavailability: 40.6% and 41%
[5]; IV 0.25 mg/kg
  AUC(0-inf): 1680 ng·h/mL
  AUC(0-t): 1610 ng·h/mL
  clearance: 2.49 mL/min/kg
  half-life: 103 min
[5]; IV 0.25 mg/kg, read-out: C0 (back extrapolated concentration)
  C0: 1330 ng/mL
[5]; IV 0.25 mg/kg, read-out: Vss
  Vd: 0.33 L/kg
[5]; PO 0.5 mg/kg
  AUC(0-inf): 1690 ng·h/mL
  AUC(0-t): 1310 ng·h/mL
  Cmax: 285 ng/mL
  Tmax: 100 min
[6]
  HLM percentage remaining after 30 min: 91.7% and 91.71%
  half-life at 3 µM: > 30 min
  remaining at 5 min, 3 µM: 98.2%
  remaining at 10 min, 3 µM: 97.7%
  remaining at 0.25 h, 3 µM: 98.2%

## O=c1[nH]cccc1-c1cn(-c2cc(Cl)cc(OCc3scnc3C(F)(F)F)c2)c(=O)n(-c2cccnc2)c1=O [Compound 37]
In vitro
  CC50: > 100 µM
SARS-CoV-2 Mpro (3CLpro)
  IC50: 0.043 µM
[1]
  EC50: 2.4 µM

## O=c1[nH]cccc1-c1cn(-c2cc(Cl)cc(OCc3nc4ccccc4n3C(F)F)c2)c(=O)n(-c2cccnc2)c1=O [Compound 38]
In vitro
  CC50: > 100 µM
SARS-CoV-2 Mpro (3CLpro)
  IC50: 0.021 µM
[1]
  EC50: 1.89 µM

## Cc1scnc1COc1cc(Cl)cc(-n2cc(-c3ccc[nH]c3=O)c(=O)n(-c3cccnc3)c2=O)c1 [Compound 39]
In vitro
  CC50: > 100 µM
SARS-CoV-2 Mpro (3CLpro)
  IC50: 0.017 µM
[1]
  EC50: 5 µM

## Cc1nc(C)c(COc2cc(Cl)cc(-n3cc(-c4ccc[nH]c4=O)c(=O)n(-c4cccnc4)c3=O)c2)s1 [Compound 40]
In vitro
  CC50: > 100 µM
SARS-CoV-2 Mpro (3CLpro)
  IC50: 0.016 µM
[1]
  EC50: 10.2 µM

## O=c1[nH]cccc1-c1cn(-c2cc(Cl)cc(OCc3nccn3C(F)F)c2)c(=O)n(-c2cccnc2)c1=O [Compound 41]
[2]
  RLM percentage remaining after 30 min: 90.2% and 90.17%
  remaining at 5 min, 3 µM: 97.6%
  remaining at 10 min, 3 µM: 95.2%
  remaining at 0.25 h, 3 µM: 93.9%
  half-life at 3 µM: > 30 min
In vitro
  CC50: > 100 µM
SARS-CoV-2 Mpro (3CLpro)
  IC50: 0.013 µM
[4]
  MLM percentage remaining after 30 min: 22.8% and 22.79%
  half-life at 3 µM: 14.7 min
  remaining at 5 min, 3 µM: 63.8%
  remaining at 10 min, 3 µM: 50.2%
  remaining at 0.25 h, 3 µM: 37.7%
[1]
  EC50: 6.76 µM
[6]
  HLM percentage remaining after 30 min: 70.7%
  half-life at 3 µM: > 30 min
  remaining at 5 min, 3 µM: 94.5%
  remaining at 10 min, 3 µM: 84.4%
  remaining at 0.25 h, 3 µM: 66.4%

## Cn1c([N+](=O)[O-])cnc1COc1cc(Cl)cc(-n2cc(-c3ccc[nH]c3=O)c(=O)n(-c3cccnc3)c2=O)c1 [Compound 42]
In vitro
  CC50: > 100 µM
SARS-CoV-2 Mpro (3CLpro)
  IC50: 0.012 µM
[1]
  EC50: 19.3 µM

## Cn1cc(COc2cc(Cl)cc(-n3cc(-c4ccc[nH]c4=O)c(=O)n(-c4cccnc4)c3=O)c2)c(C(F)(F)F)n1 [Compound 44]
In vitro
  CC50: > 100 µM
SARS-CoV-2 Mpro (3CLpro)
  IC50 range in words: single-digit nanomolar range
  IC50: 0.0056 µM
[1]
  EC50: 3.3 µM

## O=c1[nH]cccc1-c1cn(-c2cc(Cl)cc(OCc3ncsc3C(F)(F)F)c2)c(=O)n(-c2cccnc2)c1=O [Compound 45]
[2]
  RLM percentage remaining after 30 min: 30.9%
  half-life at 3 µM: 18 min
In vitro
  CC50: > 100 µM
SARS-CoV-2 Mpro (3CLpro)
  IC50: 0.012 µM
[4]
  MLM percentage remaining after 30 min: 14.4% and 14.41%
  half-life at 3 µM: 11 min
  remaining at 5 min, 3 µM: 54.6%
  remaining at 10 min, 3 µM: 43%
  remaining at 0.25 h, 3 µM: 20.6%
[1]
  EC50 range in words: sub-micromolar
  EC50: 0.82 µM
[6]
  HLM percentage remaining after 30 min: 19.5% and 19.47%
  half-life at 3 µM: 13 min
  remaining at 5 min, 3 µM: 84.6%
  remaining at 10 min, 3 µM: 49.9%
  remaining at 0.25 h, 3 µM: 48.5%

## Cc1scnc1COc1cc(Cl)cc(-n2cc(-c3ccc(=O)[nH]c3)c(=O)n(-c3cccnc3)c2=O)c1 [Compound 51]
In vitro
  CC50: > 100 µM
SARS-CoV-2 Mpro (3CLpro)
  IC50: 0.12 µM
[1]
  EC50: > 20 µM

## N#Cc1ccccc1-c1cc(-c2ccccn2)cn(-c2ccccc2)c1=O [Perampanel, perampanel]
SARS-CoV-2 Mpro
  IC50: 100 to 200 µM
